In article PMC4906375, “Contribution of Amphipathicity and Hydrophobicity to the Antimicrobial Activity and Cytotoxicity of β-Hairpin Peptides” (ACS Infectious Diseases, 2016):
Converted amounts (≈) assume the structure as drawn. Residues, ends and D or L forms follow the SMILES beside them.

Assays:
[1] = system: E. coli ATCC 25922 (control strain); type: cell-based, Escherichia coli; settings: ATCC 25922
Protocol: (§1) Both antibacterial and antifungal MIC assays were performed by a broth microdilution plate based method as per CLSI guidelines for antimicrobial susceptibility testing.[53],[54] […] Full assay details are included in the Supporting Information with a full list of strains tested in Table S1.
(§2) Antibacterial assay (Minimum Inhibitory Concentration [MIC]).
(§3) MIC assay was performed by a broth microdilution plate based method as per CLSI guidelines for antimicrobial susceptibility testing of aerobic bacteria.1 Compounds were prepared at 1.28 mg/mL solution in water. The tested strains, Table S1, were cultured in Luria broth (LB) (In Vitro Technologies, USB75852), at 37 °C overnight. A sample of culture was then diluted 40Pfold in fresh Muller Hinton broth (MHB) (Bacto laboratories, 211443) and incubated at 37 °C for 1.5P2 h. The compounds were serially diluted twoPfold across the wells, with compound concentrations ranging from 0.015 µg/mL to 512 µg/mL, plated in duplicate. The resultant midPlog phase cultures were diluted to the final concentration of 1×10^6 CFU/mL, then 50 µL was added to each well of the compoundP containing 96Pwell plates (Corning 3641, NonPbinding Surface [NBS]), giving a final compound concentration range of 0.008 µg/mL to 256 µg/mL and 5x10^5 CFU/mL. All the plates were covered and incubated at 37 °C for 18 h. MICs were determined visually, being defined as the lowest concentration showing no visible growth. Resazurin was added at 0.001% final concentration to each well and incubated for 2 h before MICs were rePread for confirmation using the colour change from blue to pink to indicate wells containing viable cells. The resazurin assay was added in some wells where some form of precipitate was present in otherwise clear wells, making it difficult to ascertain which wells had visible […]
(§4) Antifungal assay (Minimum Inhibitory Concentration [MIC]). MIC assay was performed by a broth microdilution plate based method as per CLSI guidelines for antimicrobial susceptibility testing.2 Fungi strains, Table S1, were cultured for 3 days on Yeast ExtractPPeptone Dextrose (YPD) (SigmaPAldrich, Y1500) agar at 30 °C. A yeast suspension of 1x10^6 to 5x10^6 CFU/mL was prepared from five colonies. These stock suspensions were diluted with Yeast Nitrogen Base (YNB) (Becton Dickinson, 233520) broth to a final concentration of 2.5 ×10^3 CFU/mL. All samples, compounds and standards were plated in 96Pwell plates (Corning 3641, NonPbinding Surface [NBS]), by adding 10 µL of 1.28 mg/mL stock solution to each well and 90 µL of media. Then, the samples were serial diluted (1:2) in 12 concentrations across the plate. The standard antifungal ranged from 256

[2] = system: E. coli ATCC 700926 (K12); type: cell-based, Escherichia coli; settings: ATCC 700926
Protocol: as §1, §2, §3, §4

[3] = system: E. coli MB 4902 (ΔlpxC); type: cell-based, Escherichia coli; settings: n = 4
Protocol: as §1, §2, §3, §4

[4] = system: K. pneumoniae ATCC 13883; type: cell-based, Klebsiella pneumoniae; settings: ATCC 13883
Protocol: as §1, §2, §3, §4

[5] = system: K. pneumoniae ATCC 700603 (MDR); type: cell-based, Klebsiella pneumoniae; settings: n = 4
Protocol: as §1, §2, §3, §4

[6] = system: K. pneumoniae BAA 2146 (NDM-1 pos); type: cell-based, Klebsiella pneumoniae; settings: n = 4
Protocol: as §1, §2, §3, §4

[7] = system: S. aureus ATCC 43300 (MRSA); assay: microbe, parasite or virus in culture; type: cell-based, Staphylococcus aureus; settings: S. aureus ATCC 43300 (MRSA); n = 4
Protocol: as §1, §2, §3, §4

[8] = system: C. albicans ATCC 90028; assay: microbe, parasite or virus in culture; type: cell-based, Candida albicans
Protocol: as §1, §2, §3
as §4, with “256 […]” for “256”
µg/mL to 0.12 µg/mL and compounds from 128 µg/mL to 0.06 µg/mL with final volumes of 50 µL per well, plated in duplicate. Then, 50 µL of the fungi suspension that was previously prepared in YNB broth to the final concentration of 2.5×10^3 CFU/mL, was added to each well of the compoundPcontaining plates, giving a final standard compound concentration range of 128 µg/mL to 0.06 µg/mL and tested compound from 64 µg/mL to 0.03 µg/mL. Plates were covered and incubated at 35 °C for 24 h. Candida albicans MICs were determined by measuring the absorbance at OD530. For Cryptococcus neoformans 10 µL of 0.06 % resazurin were added to the 24 h incubated plates. Then, these plates were incubated for another 3 h.
Cryptococcus neoformans MICs were determined by measuring the absorbance at OD570P600. […]

[9] = system: E. coli ATCC 25922 cytoplasmic membrane; assay: Inner membrane permeability measured by SYTOX green fluorescence emission; settings: for permeabilisation of the E. coli cytoplasmic membrane at lethal concentrations: SYTOX green, E. coli ATCC 25922, 1 h

Structure (SMILES)	MIC [1] [µg/mL]	MIC [2] [µg/mL]	MIC [3] [µg/mL]	MIC [4] [µg/mL]	MIC [5] [µg/mL]	MIC [6] [µg/mL]	MIC [7] [µg/mL]	MIC ([8]; ATCC 90028) [µg/mL]	permeabilisation of the E. coli cytoplasmic membrane at lethal concentrations [9]	permeabilization concentration relative to MIC ([9]; same E. coli ATCC 25922 strain)	MIC ([8]; C. albicans ATCC 90028, n = 4) [µg/mL]
CC(C)[C@@H]1NC(=O)CNC(=O)[C@H](CC(N)=O)NC(=O)[C@H](CCCNC(=N)N)NC(=O)[C@H](Cc2ccc(O)cc2)NC(=O)[C@H](C(C)C)NC(=O)[C@@H]2CSSC[C@H](NC(=O)[C@H](C(C)C)NC(=O)[C@H](CCCNC(=N)N)NC1=O)C(=O)N[C@@H](Cc1ccc(O)cc1)C(=O)N[C@@H](CCCNC(=N)N)C(=O)N[C@@H](CCCNC(=N)N)C(=O)N[C@H](C(=O)N[C@@H](CC(N)=O)C(=O)O)CSSC[C@H](NC(=O)[C@H](Cc1ccccc1)NC(=O)CN)C(=O)N[C@@H](Cc1c[nH]c3ccccc13)C(=O)N[C@@H](Cc1ccc(O)cc1)C(=O)N[C@@H](C(C)C)C(=O)N2 [arenicin-3] (HELM PEPTIDE1{G.F.C.W.Y.V.C.V.Y.R.N.G.V.R.V.C.Y.R.R.C.N}$PEPTIDE1,PEPTIDE1,3:R3-20:R3|PEPTIDE1,PEPTIDE1,7:R3-16:R3$$$V2.0)	0.5 (≈ 0.191 µM)	0.25 (≈ 0.0957 µM)	0.125 (≈ 0.0478 µM)	1 (≈ 0.383 µM)	4 (≈ 1.53 µM)	4 (≈ 1.53 µM)	64 (≈ 24.5 µM)	64 (≈ 24.5 µM)	permeabilise	–	–
CC(C)[C@@H]1NC(=O)[C@H](CCCNC(=N)N)NC(=O)[C@H](Cc2ccccc2)NC(=O)[C@@H](NC(=O)[C@H](Cc2c[nH]c3ccccc23)NC(=O)[C@H](CCCNC(=N)N)NC(=O)[C@@H](N)CCCNC(=N)N)CSSC[C@@H](C(=O)N[C@@H](CCCNC(=N)N)C(N)=O)NC(=O)[C@H](CCCCN)NC(=O)[C@H](CCCNC(=N)N)NC(=O)[C@H](Cc2ccc(O)cc2)NC(=O)[C@@H]2CSSC[C@H](NC1=O)C(=O)N[C@@H](Cc1ccc(O)cc1)C(=O)N[C@@H](CCCNC(=N)N)C(=O)NCC(=O)N[C@@H](Cc1ccccc1)C(=O)N2 [polyphemusin-1] (HELM PEPTIDE1{R.R.W.C.F.R.V.C.Y.R.G.F.C.Y.R.K.C.R.[am]}$PEPTIDE1,PEPTIDE1,4:R3-17:R3|PEPTIDE1,PEPTIDE1,8:R3-13:R3$$$V2.0)	0.5 (≈ 0.204 µM)	0.06 (≈ 0.0244 µM)	0.03 (≈ 0.0122 µM)	0.5 (≈ 0.204 µM)	1 (≈ 0.407 µM)	2 (≈ 0.815 µM)	2 (≈ 0.815 µM)	1 (≈ 0.407 µM)	permeabilise	lower concentration than their MIC	–
[H][C@]12CSSC[C@]([H])(NC(=O)[C@]([H])([C@@H](C)CC)NC(=O)CNC(=O)[C@H](CCCNC(=N)N)NC(=O)[C@H](Cc3ccc(O)cc3)NC1=O)C(=O)N[C@@H](Cc1ccc(O)cc1)C(=O)N[C@@H](CCCNC(=N)N)C(=O)N[C@@H](CCCNC(=N)N)C(=O)N[C@H](C(=O)N[C@@H](CCCNC(=N)N)C(N)=O)CSSC[C@H](NC(=O)[C@H](Cc1c[nH]c3ccccc13)NC(=O)[C@@H](N)CCCCN)C(=O)N[C@@H](Cc1ccccc1)C(=O)N[C@@H](CCCNC(=N)N)C(=O)N[C@@H](C(C)C)C(=O)N2 [tachyplesin-1] (HELM PEPTIDE1{K.W.C.F.R.V.C.Y.R.G.I.C.Y.R.R.C.R.[am]}$PEPTIDE1,PEPTIDE1,3:R3-16:R3|PEPTIDE1,PEPTIDE1,7:R3-12:R3$$$V2.0)	0.06 (≈ 0.0265 µM)	0.03 (≈ 0.0133 µM)	0.016 (≈ 0.00707 µM)	0.125 (≈ 0.0552 µM)	0.25 (≈ 0.11 µM)	0.25 (≈ 0.11 µM)	1 (≈ 0.442 µM)	4 (≈ 1.77 µM)	permeabilise	–	–
CC[C@H](C)[C@H](NC(=O)[C@@H](NC(=O)[C@@H]1CCCN1C(=O)[C@@H](NC(=O)[C@@H]1CCCN1C(=O)[C@H](CCCCN)NC(=O)[C@H](CCCCN)NC(=O)[C@H](CO)NC(=O)CN)C(C)C)[C@@H](C)CC)C(=O)N[C@@H](Cc1ccc(O)cc1)C(=O)N[C@H]1CSSC[C@@H](C(=O)N[C@@H](CCC(N)=O)C(=O)N[C@@H](CCCNC(=N)N)C(=O)N[C@@H](CCSC)C(N)=O)NC(=O)[C@H](CCCCN)NC(=O)CNC(=O)[C@H]([C@@H](C)O)NC(=O)[C@H](CCCNC(=N)N)NC(=O)[C@H](CCCNC(=N)N)NC(=O)[C@H](CC(N)=O)NC1=O [thanatin]	8 (≈ 3.29 µM)	8 (≈ 3.29 µM)	2 (≈ 0.822 µM)	8 (≈ 3.29 µM)	64 (≈ 26.3 µM)	256 (≈ 105 µM)	256 (≈ 105 µM)	–	does not permeabilise	–	64 (≈ 26.3 µM)
